The molecules below were run on human epithelial HeLa cells (assay: HeLa cytotoxicity assay (CellTiter-Glo)). Details: cytotoxicity in stimulated HeLa cells, recorded as pCC50.
Format: cell-based
Experimental: (§1) Compounds of the present invention were tested via high-throughput cellular assays utilizing detection of kynurenine via mass spectrometry and cytotoxicity as end-points. […] Compounds with IDO1 inhibitory properties decreased the amount of kynurenine produced by the cells via the tryptophan catabolic pathway. Cellular toxicity due to the effect of compound treatment was measured using CellTiter-Glo® reagent (CTG) (Promega Corporation, Madison, Wis.), which is based on luminescent detection of ATP, an indicator of metabolically active cells.
(§2) In preparation for the assays, test compounds were serially diluted 3-fold in DMSO from a typical top concentration of 1 mM or 5 mM and plated at 0.5 μL in 384-well, polystyrene, clear bottom, tissue culture treated plates with lids (Greiner Bio-One, Kremsmünster, Austria) to generate 11-point dose response curves. Low control wells (0% kynurenine or 100% cytotoxicity) contained either 0.5 μL of DMSO in the presence of unstimulated (−IFN-γ) HeLa cells for the mass spectrometry assay or 0.5 μL of DMSO in the absence of cells for the cytotoxicity assay, and high control wells (100% kynurenine or 0% cytotoxicity) contained 0.5 μL of DMSO in the presence of stimulated (+IFN-γ) HeLa cells for both the mass spectrometry and cytotoxicity assays.
(§3) Frozen stocks of HeLa cells were washed and recovered in DMEM high glucose medium with HEPES (Thermo Fisher Scientific, Inc., Waltham, Mass.) supplemented with 10% v/v certified fetal bovine serum (FBS) (Thermo Fisher Scientific, Inc., Waltham, Mass.), and 1× penicillin-streptomycin antibiotic solution (Thermo Fisher Scientific, Inc., Waltham, Mass.). The cells were diluted to 100,000 cells/mL in the supplemented DMEM medium. 50 μL of either the cell suspension, for the mass spectrometry assay, or medium alone, for the cytotoxicity assay, were added to the low control wells, on the previously prepared 384-well compound plates, resulting in 5,000 cells/well or 0 cells/well respectively. IFN-γ was added to the remaining cell suspension at a final concentration of 10 nM, and 50 μL of the stimulated cells were added to all remaining wells on the 384-well compound plates. The plates, with lids, were then placed in a 37° C., 5% CO2 humidified incubator for 2 days.
(§4) Following incubation, the 384-well plates were removed from the incubator and allowed to equilibrate to room temperature for 30 minutes. For the cytotoxicity assay, CellTiter-Glo® was prepared according to the manufacturer's instructions, and 10 μL were added to each plate well. After a twenty minute incubation at room temperature, luminescence was read on an EnVision® Multilabel Reader (PerkinElmer Inc., Waltham, Mass.). For the mass spectrometry assay, 10 μL of supernatant from each well of the compound-treated plates were added to 40 μL of acetonitrile, containing 10 μM of an internal standard for normalization, in 384-well, polypropylene, V-bottom plates (Greiner Bio-One, Kremsmünster, Austria) to extract the organic analytes. Following centrifugation at 2000 rpm for 10 minutes, 10 μL from each well of the acetonitrile extraction plates were added to 90 μL of sterile, distilled H2O in 384-well, polypropylene, V-bottom plates for analysis of kynurenine and the internal standard on the RapidFire 300 (Agilent Technologies, Santa Clara, Calif.) and 4000 QTRAP MS (SCIEX, Framingham, Mass.). MS data were integrated using Agilent Technologies' RapidFire Integrator software, and data were normalized for analysis as a ratio of kynurenine to the internal standard.

Q: How did the HELA_IDO1_TOX_PXC50 turn out when `CC(C)CN(c1ncc(-c2ccccc2C(=O)O)cc1Nc1nc(C(F)(F)F)ns1)C1CCOCC1` [Example 29, 2-(6-(isobutyl(tetrahydro-2H-pyran-4-yl)amino)-5-((3-(trifluoromethyl)-1,2,4-thiadiazol-5-yl)amino)pyridin-3-yl)benzoic acid] was run?
A: <5

What follows are molecules tested on human peripheral blood mononuclear cells (PBMC) (assay: PBMC cytotoxicity assay (CellTiter-Glo)). Details: cytotoxicity in stimulated PBMC, recorded as pCC50.
Format: cell-based
Experimental: as §1
as §2, with “(−IFN-γ/−LPS) PBMCs” for “(−IFN-γ) HeLa cells”, “(+IFN-γ/+LPS) PBMCs” for “(+IFN-γ) HeLa cells”
Frozen stocks of PBMCs were washed and recovered in RPMI 1640 medium (Thermo Fisher Scientific, Inc., Waltham, Mass.) supplemented with 10% v/v heat-inactivated fetal bovine serum (FBS) (Thermo Fisher Scientific, Inc., Waltham, Mass.), and 1× penicillin-streptomycin antibiotic solution (Thermo Fisher Scientific, Inc., Waltham, Mass.). The cells were diluted to 1,000,000 cells/mL in the supplemented RPMI 1640 medium. 50 μL of either the cell suspension, for the mass spectrometry assay, or medium alone, for the cytotoxicity assay, were added to the low control wells, on the previously prepared 384-well compound plates, resulting in 50,000 cells/well or 0 cells/well respectively. IFN-γ and LPS were added to the remaining cell suspension at final concentrations of 100 ng/ml and 50 ng/ml respectively, and 50 μL of the stimulated cells were added to all remaining wells on the 384-well compound plates. The plates, with lids, were then placed in a 37° C., 5% CO2 humidified incubator for 2 days.
as §4, with “and 40” for “and 10”

Q: With `CC(C)CN(c1ncc(-c2ccccc2C(=O)O)cc1Nc1nc(C(F)(F)F)ns1)C1CCOCC1` [Example 29, 2-(6-(isobutyl(tetrahydro-2H-pyran-4-yl)amino)-5-((3-(trifluoromethyl)-1,2,4-thiadiazol-5-yl)amino)pyridin-3-yl)benzoic acid] as the molecule, how does the “PBMC_TOX PXC50” value read?
A: <5.0

Q: With `CC(C)CN(c1ncc(C(C)CC(=O)O)cc1Nc1nnc(C2CC2)s1)C1CCOCC1` (centres unmarked) [Example 36, 3-{5-[(5-cyclopropyl-1,3,4-thiadiazol-2-yl)amino]-6-[(2-methylpropyl)(oxan-4-yl)amino]pyridin-3-yl}butanoic acid] as the molecule, how does the “PBMC_TOX PXC50” value read?
A: <5.0

Q: How did the “PBMC_TOX PXC50” value turn out when `CC(C)CN(c1ncc([C@H](C)CC(=O)O)cc1Nc1nc(C(F)(F)F)c[nH]1)C1CCOCC1` [Example 48, (3R)-3-{6-[(2-methylpropyl)(oxan-4-yl)amino]-5-{[4-(trifluoromethyl)-1H-imidazol-2-yl]amino}pyridin-3-yl}butanoic acid] was run?
A: <5.0

Q: For `CC(C)CN(c1ncc([C@H](C)CC(=O)O)cc1Nc1cnc(C#N)nc1)C1CCOCC1` [Example 65, (3R)-3-{5-[(2-cyanopyrimidin-5-yl)amino]-6-[(2-methylpropyl)(oxan-4-yl)amino]pyridin-3-yl}butanoic acid], which “PBMC_TOX PXC50” value is on record?
A: <5.0

Q: How did the “PBMC_TOX PXC50” value turn out when `CC(C)CN(c1ncc([C@H](C)CC(=O)O)cc1Nc1ccc(Cl)nc1)C1CC(F)(F)C1` [Example 19, (R)-3-(5-((6-chloropyridin-3-yl)amino)-6-((3,3-difluorocyclobutyl)(isobutyl)amino)pyridin-3-yl) butanoic acid] was run?
A: <5.0

Q: With `CC(C)CN(c1ncc([C@H](C)CC(=O)O)cc1Nc1ccc(Cl)c(C#N)n1)C1CCOCC1` [Example 70, (3R)-3-{5-[(5-chloro-6-cyanopyridin-2-yl)amino]-6-[(2-methylpropyl)(oxan-4-yl)amino]pyridin-3-yl}butanoic acid] as the molecule, how does the “PBMC_TOX PXC50” value read?
A: <5.0

Q: How did the “PBMC_TOX PXC50” value turn out when `CC(C)CN(c1ncc([C@H](C)CC(=O)O)cc1Nc1nnc(C2CC2)s1)C1CCOCC1` [Example 38, (3R)-3-{5-[(5-cyclopropyl-1,3,4-thiadiazol-2-yl)amino]-6-[(2-methylpropyl)(oxan-4-yl)amino]pyridin-3-yl}butanoic acid] was run?
A: <5.0

Q: For `COC1CCC(N(CC(C)C)c2ncc(C(C)CC(=O)O)cc2Nc2ccc(C#N)cn2)CC1` (stereo not drawn) [Example 53, (3RS)-3-{5-[(5-cyanopyridin-2-yl)amino]-6-[(2-methylpropyl)[(1rs&,4rs&)-4-methoxycyclohexyl]amino]pyridin-3-yl}butanoic acid], which “PBMC_TOX PXC50” value is on record?
A: <5.0

Q: For `CNC(=O)c1nnc(Nc2cc([C@H](C)CC(=O)O)cnc2N(CC(C)C)C2CCCCC2)s1` [Example 64, (3R)-3-{6-[cyclohexyl(2-methylpropyl)amino]-5-{[5-(methylcarbamoyl)-1,3,4-thiadiazol-2-yl]amino}pyridin-3-yl}butanoic acid], which “PBMC_TOX PXC50” value is on record?
A: <5.0

Q: For `Cc1nc(Nc2cc([C@H](C)CC(=O)O)cnc2N(CC(C)C)C2CCOCC2)ccc1Cl` [Example 69, (3R)-3-{5-[(5-chloro-6-methylpyridin-2-yl)amino]-6-[(2-methylpropyl)(oxan-4-yl)amino]pyridin-3-yl}butanoic acid], which “PBMC_TOX PXC50” value is on record?
A: <5.0

Q: How did the “PBMC_TOX PXC50” value turn out when `Cc1nnc(Nc2cc([C@H](C)CC(=O)O)cnc2N(CC(C)C)C2CCCCC2)s1` [Example 45, (3R)-3-{6-[cyclohexyl(2-methylpropyl)amino]-5-[(5-methyl-1,3,4-thiadiazol-2-yl)amino]pyridin-3-yl}butanoic acid] was run?
A: <5.0

Q: `CO[C@H]1CC[C@@H](N(CC(C)C)c2ncc([C@H](C)CC(=O)O)cc2Nc2ccc(C#N)cn2)CC1` [Example 25, (R)-3-(5-((5-cyanopyridin-2-yl)amino)-6-(isobutyl((1s,4S)-4-methoxycyclohexyl)amino)pyridin-3-yl)butanoic acid] was tested. Which “PBMC_TOX PXC50” value did it give?
A: <5.0

Q: How did the “PBMC_TOX PXC50” value turn out when `CO[C@H]1CC[C@@H](N(CC(C)C)c2ncc([C@H](C)CC(=O)O)cc2Nc2ccc(C#N)nc2)CC1` [Example 23, (R)-3-(5-((6-cyanopyridin-3-yl)amino)-6-(isobutyl((1s,4S)-4-methoxycyclohexyl)amino)pyridin-3-yl)butanoic acid] was run?
A: <5.0

Q: Which “PBMC_TOX PXC50” value does the source give for `CC(C)CN(c1cnc([C@H](C)CC(=O)O)cc1Nc1ccc(Cl)cn1)C1CCOCC1` [Example 82, (3R)-3-{4-[(5-chloropyridin-2-yl)amino]-5-[(2-methylpropyl)(oxan-4-yl)amino]pyridin-2-yl}butanoic acid] here?
A: <5.0

Q: How did the “PBMC_TOX PXC50” value turn out when `COCc1ccc(Nc2cc([C@H](C)CC(=O)O)cnc2N(CC(C)C)[C@H]2CC[C@@H](OC)CC2)nc1` [Example 58, (3R)-3-(5-{[5-(methoxymethyl)pyridin-2-yl]amino}-6-[(2-methylpropyl)[(1s,4s)-4-methoxycyclohexyl]amino]pyridin-3-yl)butanoic acid] was run?
A: <5.0

Q: For `CC(C)CN(CC(C)C)c1nnc(C(C)CC(=O)O)cc1Nc1nc(C(F)(F)F)ns1` (centres unmarked) [Example 72, 3-{6-[bis(2-methylpropyl)amino]-5-{[3-(trifluoromethyl)-1,2,4-thiadiazol-5-yl]amino}pyridazin-3-yl}butanoic acid], which “PBMC_TOX PXC50” value is on record?
A: <5.0

Q: How did the “PBMC_TOX PXC50” value turn out when `COCc1ccc(Nc2cc(C(C)CC(=O)O)cnc2N(CC(C)C)C2CCC(OC)CC2)nc1` (stereo not drawn) [Example 47, (3RS)-3-(5-{[5-(methoxymethyl)pyridin-2-yl]amino}-6-[(2-methylpropyl)[(1rs&,4rs&)-4-methoxycyclohexyl]amino]pyridin-3-yl)butanoic acid] was run?
A: <5.0

Each molecule was assayed against indoleamine 2, 3-dioxygenase (IDO1) (Homo sapiens, UniProt P14902) (assay: IDO1 HeLa RapidFire MS Assay (kynurenine by mass spectrometry)). Details: HeLa cells stimulated with IFN-γ, 2 days; recorded as pIC50; read-out: IDO1 HeLa PXC50 (converted).
Chain of indoleamine 2, 3-dioxygenase (IDO1) (P14902 whole entry): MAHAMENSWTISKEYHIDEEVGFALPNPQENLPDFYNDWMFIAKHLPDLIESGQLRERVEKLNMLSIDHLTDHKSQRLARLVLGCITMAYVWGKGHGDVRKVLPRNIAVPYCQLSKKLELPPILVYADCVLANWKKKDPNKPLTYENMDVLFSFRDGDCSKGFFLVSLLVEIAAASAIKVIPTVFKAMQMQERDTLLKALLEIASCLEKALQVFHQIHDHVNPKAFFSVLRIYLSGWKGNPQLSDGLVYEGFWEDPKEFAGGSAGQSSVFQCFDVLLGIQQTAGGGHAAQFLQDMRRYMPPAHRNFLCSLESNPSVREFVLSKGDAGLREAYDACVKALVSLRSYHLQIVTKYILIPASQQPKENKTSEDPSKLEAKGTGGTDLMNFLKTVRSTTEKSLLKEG
Format: cell-based
Experimental: IDO1 HeLa RapidFire MS Assay
as §1, §2, §3, §4

Q: How did the IC50 turn out when `CC(C)CN(c1ncc(-c2ccccc2C(=O)O)cc1Nc1nc(C(F)(F)F)ns1)C1CCOCC1` [Example 29, 2-(6-(isobutyl(tetrahydro-2H-pyran-4-yl)amino)-5-((3-(trifluoromethyl)-1,2,4-thiadiazol-5-yl)amino)pyridin-3-yl)benzoic acid] was run?
A: 15.8 nM

Q: `CC(C)CN(c1ncc(C(C)CC(=O)O)cc1Nc1nnc(C2CC2)s1)C1CCOCC1` (centres unmarked) [Example 36, 3-{5-[(5-cyclopropyl-1,3,4-thiadiazol-2-yl)amino]-6-[(2-methylpropyl)(oxan-4-yl)amino]pyridin-3-yl}butanoic acid] was tested. Which IC50 did it give?
A: 7.94 nM
